From ChEMBL document CHEMBL1143994, “New terpenoids from Maytenus apurimacensis as MDR reversal agents in the parasite Leishmania” (2008)

Columns and labels:
Format in all cases: functional
Leishmania tropica [1] = experiment: Growth inhibition of wild type Leishmania tropica LRC at 7 uM after 72 hrs by MTT assay relative to control; conditions: read-out: GI
Leishmania tropica [2] = experiment: Growth inhibition of multidrug resistant Leishmania tropica at 15 uM in presence of 150 uM daunomycin after 72 hrs by MTT assay relative to control
Leishmania tropica [3] = experiment: Growth inhibition of wild type Leishmania tropica LRC at 3 uM after 72 hrs by MTT assay relative to control; conditions: read-out: GI
Leishmania tropica [4] = experiment: Growth inhibition of multidrug resistant Leishmania tropica at 3 uM in presence of 150 uM daunomycin after 72 hrs by MTT assay relative to control
Leishmania tropica [5] = experiment: Growth inhibition of wild type Leishmania tropica LRC at 15 uM after 72 hrs by MTT assay relative to control; conditions: read-out: GI
Leishmania tropica [6] = experiment: Growth inhibition of wild type Leishmania tropica LRC at 1 uM after 72 hrs by MTT assay relative to control; conditions: read-out: GI
Leishmania tropica [7] = experiment: Growth inhibition of multidrug resistant Leishmania tropica at 7 uM in presence of 150 uM daunomycin after 72 hrs by MTT assay relative to control
Leishmania tropica [8] = experiment: Growth inhibition of multidrug resistant Leishmania tropica at 1 uM in presence of 150 uM daunomycin after 72 hrs by MTT assay relative to control

What does the source list for `CC(=O)O[C@@H]1[C@@H]2[C@@H](OC(=O)c3cccnc3)[C@]3(OC2(C)C)[C@H](C)CC[C@H](OC(=O)c2ccccc2)[C@@]3(C)[C@@H]1OC(=O)c1ccccc1`?
inhibition of growth at 7 µM (Leishmania tropica [1]): 0.8%; growth inhibition (GI) (Leishmania tropica [2]): 96.1%; inhibition of growth at 3 µM (Leishmania tropica [3]): 0%; growth inhibition (GI) (Leishmania tropica [4]): 21.2%; inhibition of growth at 15 µM (Leishmania tropica [5]): 2.3%; inhibition of growth at 1 µM (Leishmania tropica [6]): 0%; growth inhibition (GI) (Leishmania tropica [7]): 59.2%; growth inhibition (GI) (Leishmania tropica [8]): 8.6%

Which inhibition of growth at 7 µM (Leishmania tropica [1]) does the source give for `CC(=O)O[C@@H]1[C@@H]2[C@@H](OC(=O)c3cccnc3)[C@@]3(OC2(C)C)[C@@](C)([C@@H](OC(=O)c2ccccc2)CC[C@@]3(C)O)[C@@H]1OC(=O)c1ccccc1` here?
The inhibition of growth at 7 µM was 0%.

And the “growth inhibition (GI)” value (Leishmania tropica [2])?
Its value is 98.5%.

And the inhibition of growth at 3 µM (Leishmania tropica [3])?
Its inhibition of growth at 3 µM is 0%.

And the “growth inhibition (GI)” value (Leishmania tropica [4])?
The value was 62.8%.

What about the inhibition of growth at 15 µM (Leishmania tropica [5]) of the same molecule?
The inhibition of growth at 15 µM was 13.6%.

And the inhibition of growth at 1 µM (Leishmania tropica [6])?
Its inhibition of growth at 1 µM is 0%.

And the “growth inhibition (GI)” value (Leishmania tropica [7])?
Its value is 90.2%.

What about the “growth inhibition (GI)” value (Leishmania tropica [8]) of the same molecule?
Its value is 15.8%.
